{
  "source": "patent US20230097866A1",
  "about": "“BACTERIAL TOPOISOMERASE INHIBITORS DERIVED FROM ISOMANNIDE” (Ohio State Innovation Foundation, priority 2020, published 2023)",
  "key": {"[1]": {"test_system": "Acinetobacter baumannii LSI-2957", "assay": "MIC panel (Laboratory Specialists, Inc.), A. baumannii", "format": "cell-based", "conditions": "LSI2957, Cmpd. 6, CLSI broth microdilution"}, "[2]": {"target": "T1, Nav1.5 Late Current Human Ion Channel (Homo sapiens, UniProt Q14524)", "T1 construct": "expressed in transfected cells", "T1 sequence (Q14524 whole entry)": "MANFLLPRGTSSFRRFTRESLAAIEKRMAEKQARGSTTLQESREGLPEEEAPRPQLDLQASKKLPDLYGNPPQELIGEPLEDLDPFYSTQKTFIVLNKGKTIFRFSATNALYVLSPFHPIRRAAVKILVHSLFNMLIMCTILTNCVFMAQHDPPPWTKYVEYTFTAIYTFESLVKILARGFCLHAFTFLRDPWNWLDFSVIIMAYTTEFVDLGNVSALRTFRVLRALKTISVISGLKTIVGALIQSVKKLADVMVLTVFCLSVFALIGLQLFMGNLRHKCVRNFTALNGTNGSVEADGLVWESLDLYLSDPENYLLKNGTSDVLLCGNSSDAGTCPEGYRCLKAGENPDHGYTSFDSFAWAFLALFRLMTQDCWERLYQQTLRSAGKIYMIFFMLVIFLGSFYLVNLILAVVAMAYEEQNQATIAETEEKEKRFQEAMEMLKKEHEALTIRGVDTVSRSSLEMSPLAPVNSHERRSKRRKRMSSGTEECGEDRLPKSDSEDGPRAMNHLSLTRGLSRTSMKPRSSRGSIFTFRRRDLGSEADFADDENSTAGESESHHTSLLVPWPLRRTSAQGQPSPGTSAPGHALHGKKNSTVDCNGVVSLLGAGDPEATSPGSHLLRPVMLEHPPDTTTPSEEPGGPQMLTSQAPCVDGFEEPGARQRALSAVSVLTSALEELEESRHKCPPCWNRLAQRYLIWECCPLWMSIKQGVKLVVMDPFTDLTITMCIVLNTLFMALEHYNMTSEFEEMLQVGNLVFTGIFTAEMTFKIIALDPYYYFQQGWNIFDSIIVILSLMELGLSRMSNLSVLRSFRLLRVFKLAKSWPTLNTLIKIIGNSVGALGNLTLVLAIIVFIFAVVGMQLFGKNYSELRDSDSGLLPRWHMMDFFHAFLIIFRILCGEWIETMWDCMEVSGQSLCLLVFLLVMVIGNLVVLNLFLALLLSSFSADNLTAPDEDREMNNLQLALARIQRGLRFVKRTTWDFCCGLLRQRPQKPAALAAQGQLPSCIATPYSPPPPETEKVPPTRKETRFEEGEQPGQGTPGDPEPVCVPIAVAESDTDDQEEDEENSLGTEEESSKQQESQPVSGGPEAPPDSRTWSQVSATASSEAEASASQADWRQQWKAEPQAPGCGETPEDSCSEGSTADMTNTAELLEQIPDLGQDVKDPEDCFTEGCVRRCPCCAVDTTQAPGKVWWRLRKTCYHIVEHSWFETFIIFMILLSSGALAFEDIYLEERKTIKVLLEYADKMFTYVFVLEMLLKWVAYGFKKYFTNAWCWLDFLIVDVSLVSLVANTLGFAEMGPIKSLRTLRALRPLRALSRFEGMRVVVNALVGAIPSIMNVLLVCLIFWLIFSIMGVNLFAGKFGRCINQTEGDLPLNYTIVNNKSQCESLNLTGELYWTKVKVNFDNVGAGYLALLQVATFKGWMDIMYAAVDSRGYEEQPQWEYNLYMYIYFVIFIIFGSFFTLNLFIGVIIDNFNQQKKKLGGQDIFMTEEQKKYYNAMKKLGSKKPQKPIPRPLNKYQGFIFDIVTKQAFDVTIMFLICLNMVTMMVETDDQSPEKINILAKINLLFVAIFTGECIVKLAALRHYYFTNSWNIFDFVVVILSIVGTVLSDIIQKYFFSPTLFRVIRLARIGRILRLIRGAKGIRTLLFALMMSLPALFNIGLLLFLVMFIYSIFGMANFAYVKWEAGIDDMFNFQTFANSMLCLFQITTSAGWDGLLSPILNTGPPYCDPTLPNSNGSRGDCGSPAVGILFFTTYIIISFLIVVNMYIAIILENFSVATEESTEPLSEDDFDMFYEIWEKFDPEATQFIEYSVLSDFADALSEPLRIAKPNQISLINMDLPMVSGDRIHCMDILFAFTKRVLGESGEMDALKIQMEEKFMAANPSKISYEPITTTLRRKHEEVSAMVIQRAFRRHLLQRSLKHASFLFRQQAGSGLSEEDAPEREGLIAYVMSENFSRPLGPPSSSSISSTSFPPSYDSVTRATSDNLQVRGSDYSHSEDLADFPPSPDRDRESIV", "format": "cell-based", "conditions": "in presence of 30 nM ATXII", "from_the_text": "Early drug discovery programs commonly assess hERG inhibition as the only indicator of potential cardiovascular safety concerns. Researchers have recently recommended a more rigorous evaluation of multiple cardiac ion channels to provide a more comprehensive cardiovascular risk assessment (Fermini, B., et al., A New Perspective in the Field of Cardiac Safety Testing through the Comprehensive In Vitro Proarrhythmia Assay Paradigm. J. Biomolec. Screening 2016, 21, 1-11). Given the promising initial results for 6, further evaluation was undertaken (in duplicate) in a Comprehensive in vitro Proarrhythmia Assay (CiPA) eight assay panel run on the QPatch HT (Sophion, Denmark) automated patch clamp system at three concentrations (3, 30, and 100 μM). All data were filtered for seal quality, seal drop, and current amplitude. A stock solution of the test compound at 30 mM concentration was prepared in DMSO.\nThe parameters measured were the maximum inward current (charge) evoked on stepping to −15mV from the test pulse in the presence of 30 nM ATXII. The peak and ramp current (charge) amplitude was calculated before and after compound addition and the amount of current (charge) was assessed by dividing the Test compound current (charge) by the Control current (charge). Control is the mean hNav1.5 late current (charge) collected 15 seconds at the end of the control (30 nM ATXII); Test Compound is the mean hNav1.5 current (charge) collected in the presence of test compound and 30 nM ATXII at each concentration. The positive control was ranolizine."}, "CYP3A4": {"target": "T2, CYP3A4 (Homo sapiens, UniProt P08684)", "T2 construct": "incubated with human liver microsomes (mixed gender, pool of 50 donors, 0.1 mg/mL); from tissue; host or cells: human liver microsomes, pool of 50 donors", "T2 sequence (P08684 whole entry, canonical isoform)": "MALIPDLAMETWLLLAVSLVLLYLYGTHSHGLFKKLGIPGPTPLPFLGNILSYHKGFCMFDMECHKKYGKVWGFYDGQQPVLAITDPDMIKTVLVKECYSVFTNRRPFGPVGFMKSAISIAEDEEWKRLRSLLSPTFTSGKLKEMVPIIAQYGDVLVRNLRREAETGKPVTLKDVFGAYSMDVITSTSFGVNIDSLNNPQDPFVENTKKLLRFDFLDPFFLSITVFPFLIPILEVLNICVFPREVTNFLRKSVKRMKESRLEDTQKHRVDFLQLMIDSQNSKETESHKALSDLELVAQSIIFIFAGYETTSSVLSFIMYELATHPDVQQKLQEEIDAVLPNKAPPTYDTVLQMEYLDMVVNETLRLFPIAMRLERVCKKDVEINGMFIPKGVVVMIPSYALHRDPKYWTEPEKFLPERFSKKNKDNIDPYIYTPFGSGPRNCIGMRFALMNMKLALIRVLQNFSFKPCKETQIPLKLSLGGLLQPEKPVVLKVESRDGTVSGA", "assay": "CYP450 inhibition in human liver microsomes, CYP3A4", "format": "in vitro ADME", "conditions": "both sexes", "experimental": "CYP450 inhibition assays was conducted using individual enzyme substrates and inhibitors instead of a cocktail to avoid interferences. CYP450 isoforms tested included the following: CYP1A2, CYP2B6, CYP2C8, CYP2C9, CYP2C19, CYP2D6, and CYP3A4. […] Each test compound was incubated with human liver microsomes (mixed gender, pool of 50 donors, 0.1 mg/mL), CYP450-selective probe substrates, and co-factors (NADPH, MgCl2) in phosphate buffer (pH 7.4) for 10-30 min in a 96-well plate at 37° C. The reactions were stopped by transferring the reaction mixture to acetonitrile/methanol. Samples were mixed and centrifuged, and the supernatants analyzed by LC-MS/MS to quantify percent inhibition relative to vehicle control."}, "[3]": {"test_system": "Enterococcus faecium LSI-3340", "assay": "MIC panel (Laboratory Specialists, Inc.), E. faecium LSI-3340", "format": "cell-based", "conditions": "LSI3340, Cmpd. 6, vancomycin-resistant strain"}, "[4]": {"test_system": "Escherichia coli ATCC 25922", "assay": "MIC panel (Laboratory Specialists, Inc.), E. coli", "format": "cell-based", "conditions": "ATCC25922, read-out: MIC Escherichia coli ATCC 25922 (n = 2), Cmpd. 6, CLSI broth microdilution"}, "Histamine H2": {"target": "Histamine H2 (Homo sapiens, UniProt P25021)", "sequence (P25021 whole entry)": "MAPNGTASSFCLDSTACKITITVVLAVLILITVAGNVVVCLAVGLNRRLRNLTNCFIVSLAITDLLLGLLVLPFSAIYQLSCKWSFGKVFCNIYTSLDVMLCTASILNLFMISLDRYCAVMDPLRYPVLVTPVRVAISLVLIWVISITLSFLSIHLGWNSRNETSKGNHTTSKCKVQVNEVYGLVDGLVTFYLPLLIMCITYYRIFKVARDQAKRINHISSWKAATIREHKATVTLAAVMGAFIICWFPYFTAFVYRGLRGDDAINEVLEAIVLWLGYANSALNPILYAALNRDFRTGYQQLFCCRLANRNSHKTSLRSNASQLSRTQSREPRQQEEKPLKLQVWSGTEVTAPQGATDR", "assay": "Off-target safety panel, Histamine H2", "format": "binding", "conditions": "duplicate, read-out: % Inhibition at 100 μM conc., Histamine H2", "experimental": "(§1) Potential off-target pharmacology for compound 6 was also evaluated by screening in duplicate against a panel (Bowes, J., et al., Reducing Safety-Related Drug Attrition: The Use of in vitro Pharmacological Profiling. Nat. Rev. Drug Disc. 2012, 11, 909-922) of 44 receptors, enzymes, etc. Of the 44 potential targets, only five were inhibited by >50% at a concentration of 100 μM (Table 7)."}, "CYP2C19": {"target": "T3, CYP2C19 (Homo sapiens, UniProt P33261)", "T3 construct": "incubated with human liver microsomes (mixed gender, pool of 50 donors, 0.1 mg/mL); from tissue; host or cells: human liver microsomes, pool of 50 donors", "T3 sequence (P33261 whole entry, canonical isoform)": "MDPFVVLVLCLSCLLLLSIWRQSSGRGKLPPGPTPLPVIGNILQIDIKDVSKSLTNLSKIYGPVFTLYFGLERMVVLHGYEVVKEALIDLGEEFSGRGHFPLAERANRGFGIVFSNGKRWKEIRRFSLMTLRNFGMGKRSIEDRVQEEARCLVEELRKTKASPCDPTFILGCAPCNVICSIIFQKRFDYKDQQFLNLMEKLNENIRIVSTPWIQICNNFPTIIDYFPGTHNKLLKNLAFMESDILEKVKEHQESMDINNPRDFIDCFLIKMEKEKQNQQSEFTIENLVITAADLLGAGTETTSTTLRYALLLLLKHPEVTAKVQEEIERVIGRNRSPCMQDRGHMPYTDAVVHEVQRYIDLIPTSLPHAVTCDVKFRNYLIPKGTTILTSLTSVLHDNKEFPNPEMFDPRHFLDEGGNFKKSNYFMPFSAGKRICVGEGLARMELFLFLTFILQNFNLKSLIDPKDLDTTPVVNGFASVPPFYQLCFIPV", "assay": "CYP450 inhibition in human liver microsomes, CYP2C19", "format": "in vitro ADME", "conditions": "10 μM", "experimental": "(§2) CYP450 inhibition assays was conducted using individual enzyme substrates and inhibitors instead of a cocktail to avoid interferences. CYP450 isoforms tested included the following: CYP1A2, CYP2B6, CYP2C8, CYP2C9, CYP2C19, CYP2D6, and CYP3A4. Each test compound was screened at a final concentration of 10 μM. Each test compound was incubated with human liver microsomes (mixed gender, pool of 50 donors, 0.1 mg/mL), CYP450-selective probe substrates, and co-factors (NADPH, MgCl2) in phosphate buffer (pH 7.4) for 10-30 min in a 96-well plate at 37° C. The reactions were stopped by transferring the reaction mixture to acetonitrile/methanol. Samples were mixed and centrifuged, and the supernatants analyzed by LC-MS/MS to quantify percent inhibition relative to vehicle control."}, "CYP2B6": {"target": "T4, CYP2B6 (Homo sapiens, UniProt P20813)", "T4 construct": "incubated with human liver microsomes (mixed gender, pool of 50 donors, 0.1 mg/mL); from tissue; host or cells: human liver microsomes, pool of 50 donors", "T4 sequence (P20813 whole entry)": "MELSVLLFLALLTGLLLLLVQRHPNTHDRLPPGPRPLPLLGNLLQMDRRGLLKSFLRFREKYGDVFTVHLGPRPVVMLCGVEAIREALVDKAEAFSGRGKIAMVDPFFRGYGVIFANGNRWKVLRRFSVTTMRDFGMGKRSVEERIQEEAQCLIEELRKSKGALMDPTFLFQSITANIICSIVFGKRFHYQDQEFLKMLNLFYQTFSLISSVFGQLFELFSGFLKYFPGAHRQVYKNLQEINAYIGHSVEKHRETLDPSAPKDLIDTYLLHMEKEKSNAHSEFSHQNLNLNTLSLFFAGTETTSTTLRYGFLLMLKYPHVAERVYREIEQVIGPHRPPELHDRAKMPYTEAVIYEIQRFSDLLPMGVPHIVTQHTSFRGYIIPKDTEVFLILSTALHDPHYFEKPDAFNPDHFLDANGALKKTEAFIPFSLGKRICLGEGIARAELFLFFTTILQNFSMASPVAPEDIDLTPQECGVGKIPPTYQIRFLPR", "assay": "CYP450 inhibition in human liver microsomes, CYP2B6", "format": "in vitro ADME", "conditions": "10 μM", "experimental": "as §2"}, "CYP1A2": {"target": "T5, CYP1A2 (Homo sapiens, UniProt P05177)", "T5 construct": "incubated with human liver microsomes (mixed gender, pool of 50 donors, 0.1 mg/mL); from tissue; host or cells: human liver microsomes, pool of 50 donors", "T5 sequence (P05177 whole entry)": "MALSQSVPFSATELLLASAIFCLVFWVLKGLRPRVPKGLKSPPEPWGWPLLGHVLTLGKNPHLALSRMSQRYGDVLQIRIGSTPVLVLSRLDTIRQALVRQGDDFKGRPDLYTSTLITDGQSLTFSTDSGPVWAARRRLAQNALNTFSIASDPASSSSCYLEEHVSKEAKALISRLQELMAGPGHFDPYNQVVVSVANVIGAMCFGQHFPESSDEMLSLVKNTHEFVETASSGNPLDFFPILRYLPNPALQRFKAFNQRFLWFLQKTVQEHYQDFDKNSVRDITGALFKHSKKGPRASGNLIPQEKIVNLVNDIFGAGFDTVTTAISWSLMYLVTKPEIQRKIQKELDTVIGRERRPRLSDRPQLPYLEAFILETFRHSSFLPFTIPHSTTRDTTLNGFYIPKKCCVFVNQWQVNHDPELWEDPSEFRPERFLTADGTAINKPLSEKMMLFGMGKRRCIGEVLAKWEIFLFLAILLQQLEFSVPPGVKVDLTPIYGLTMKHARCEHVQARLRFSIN", "format": "in vitro ADME", "conditions": "10 μM; human liver microsomes", "experimental": "as §2"}, "[5]": {"test_system": "Streptococcus pneumoniae LSI-4246", "assay": "MIC panel (Laboratory Specialists, Inc.), S. pneumoniae LSI-4246", "format": "cell-based", "conditions": "LSI4246, Cmpd. 6, penicillin-resistant strain"}, "S. aureus ATCC 29213": {"test_system": "S. aureus ATCC 29213", "assay": "microbe, parasite or virus in culture", "format": "cell-based", "conditions": "Staphylococcus aureus, ATCC29213, read-out: S. aureus ATCC 29213 MIC (n = 2); CLSI agar dilution", "experimental": "In order to determine the spontaneous mutation frequency of investigational agents (Table 4), the MIC was first determined using the agar dilution method as recommended by the Clinical and Laboratory Standards Institute.\nTriplicate independent inocula of S. aureus ATCC 29213 were evaluated."}, "[6]": {"conditions": "100 μM", "experimental": "as §1"}, "[7]": {"conditions": "liver microsomes, pH 7.4, probe midazolam, Exp. 1, read-out: CYP3A4 (midazolam hydroxylase) % of control (Exp. 1)"}, "[8]": {"conditions": "liver microsomes, pH 7.4, probe midazolam, Exp. 2, read-out: CYP3A4 (midazolam hydroxylase) % of control (Exp. 2)"}, "[9]": {"conditions": "liver microsomes, pH 7.4, probe midazolam, Exp. 3, read-out: CYP3A4 (midazolam hydroxylase) % of control (Exp. 3)"}},
  "note": "Where two headings read alike, the source gives them in different places.",
  "data": [
    {"smiles": "COc1ccc2ncc(F)c(CC[C@@]3(O)CO[C@@H]4[C@@H](NCc5cc6c(cn5)OCCO6)CO[C@@H]43)c2n1", "note": "[Compound 6, (3R, 3aS,6S,6aR)-6-(((2,3-dihydro-[1,4]dioxino[2,36-c]pyridin-7-yl)methyl)amnino)-3-(2-(3-fluoro-6-methoxy-1,5-naphthyridin-4-yl)ethyl)hexahydrofuro[3,2-b]furan-3-ol]", "values": [
      {"measurement": "MIC", "setting": "[1]", "value": "≤ 0.12", "unit": "µg/mL"},
      {"measurement": "% Inhibition Nav1.5 Late (antagonist - inhibition of ATXII EC50 current)", "setting": "[2]; 3 μM", "value": 4.3, "unit": "%"},
      {"measurement": "% Inhibition Nav1.5 Late (antagonist - inhibition of ATXII EC50 current)", "setting": "[2]; 30 μM", "value": 19.1, "unit": "%"},
      {"measurement": "% Inhibition Nav1.5 Late (antagonist - inhibition of ATXII EC50 current)", "setting": "[2]; 100 μM", "value": 50.9, "unit": "%"},
      {"measurement": "activity at 3 µM", "setting": "CYP3A4; human liver microsomes, pH 7.4, probe midazolam (midazolam hydroxylase activity), Exp. 1, read-out: CYP3A4 (midazolam hydroxylase) % of control (Exp. 1)", "value": 74.3, "unit": "%"},
      {"measurement": "activity at 3 µM", "setting": "CYP3A4; human liver microsomes, pH 7.4, probe midazolam (midazolam hydroxylase activity), Exp. 2, read-out: CYP3A4 (midazolam hydroxylase) % of control (Exp. 2)", "value": 77.2, "unit": "%"},
      {"measurement": "activity at 3 µM", "setting": "CYP3A4; human liver microsomes, pH 7.4, probe midazolam (midazolam hydroxylase activity), Exp. 3, read-out: CYP3A4 (midazolam hydroxylase) % of control (Exp. 3)", "value": 60.4, "unit": "%"},
      {"measurement": "activity at 10 µM", "setting": "CYP3A4; human liver microsomes, pH 7.4, probe midazolam (midazolam hydroxylase activity), 10 μM, Exp. 3, read-out: CYP3A4 (midazolam hydroxylase) % of control (Exp. 3)", "value": 74.5, "unit": "%"},
      {"measurement": "activity at 0.1 µM", "setting": "CYP3A4; [7]", "value": 116, "unit": "%"},
      {"measurement": "activity at 0.1 µM", "setting": "CYP3A4; [8]", "value": 108, "unit": "%"},
      {"measurement": "activity at 0.1 µM", "setting": "CYP3A4; [9]", "value": 97, "unit": "%"},
      {"measurement": "activity at 0.3 µM", "setting": "CYP3A4; [7]", "value": 89.9, "unit": "%"},
      {"measurement": "activity at 0.3 µM", "setting": "CYP3A4; [8]", "value": 113, "unit": "%"},
      {"measurement": "activity at 0.3 µM", "setting": "CYP3A4; [9]", "value": 99.2, "unit": "%"},
      {"measurement": "activity at 1 µM", "setting": "CYP3A4; [7]", "value": 60.4, "unit": "%"},
      {"measurement": "activity at 1 µM", "setting": "CYP3A4; [8]", "value": 89.8, "unit": "%"},
      {"measurement": "activity at 1 µM", "setting": "CYP3A4; [9]", "value": 89.9, "unit": "%"},
      {"measurement": "activity at 10 µM", "setting": "CYP3A4; liver microsomes, pH 7.4, probe midazolam, 10 μM, Exp. 1, read-out: CYP3A4 (midazolam hydroxylase) % of control (Exp. 1)", "value": 49.5, "unit": "%"},
      {"measurement": "activity at 10 µM", "setting": "CYP3A4; liver microsomes, pH 7.4, probe midazolam, 10 μM, Exp. 2, read-out: CYP3A4 (midazolam hydroxylase) % of control (Exp. 2)", "value": 82.3, "unit": "%"},
      {"measurement": "inhibition at 10 µM", "setting": "CYP3A4; liver microsomes, pH 7.4, probe midazolam, 10 μM, screening assay", "value": 56, "unit": "%"},
      {"measurement": "IC50", "setting": "CYP3A4; liver microsomes, pH 7.4, probe midazolam, concentration-response assay in triplicate", "value": "> 10", "unit": "µM"},
      {"measurement": "MIC", "setting": "[3]", "value": 0.25, "unit": "µg/mL"},
      {"measurement": "MIC", "setting": "[4]", "value": 64, "unit": "µg/mL"},
      {"measurement": "inhibition at 100 µM", "setting": "Histamine H2", "value": 51, "unit": "%"},
      {"measurement": "CYP2C19 inhibition", "setting": "CYP2C19", "value": "Less than 50%"},
      {"measurement": "CYP2B6 inhibition", "setting": "CYP2B6", "value": "Less than 50%"},
      {"measurement": "CYP1A2 inhibition", "setting": "CYP1A2", "value": "Less than 50%"},
      {"measurement": "MIC", "setting": "[5]", "value": "≤ 0.12", "unit": "µg/mL"},
      {"measurement": "MIC", "setting": "S. aureus ATCC 29213", "value": 1, "unit": "µg/mL"},
      {"measurement": "number of the 44 potential targets inhibited by >50%", "setting": "[6]", "value": "five"}
    ]}
  ]
}
